Assay results published in patent US12060347B2 (BRISTOL-MYERS SQUIBB COMPANY, priority 2016, dated 2024).

What follows are compounds tested against T1, human PAR4 (Homo sapiens, UniProt Q96RI0) (assay: PAR4 FLIPR assay: antagonism of agonist-peptide-induced calcium mobilization in PAR4-expressing HEK293 cells). Details: H-Ala-Phe(4-F)-[…]NH2-induced intracellular calcium mobilization, 11-point curves.
T1 construct: expressed in transfected cells; host or cells: HEK293 PAR4 Clone 1.2A (BMS Arctic ID 383940)
T1 sequence (Q96RI0 18-385): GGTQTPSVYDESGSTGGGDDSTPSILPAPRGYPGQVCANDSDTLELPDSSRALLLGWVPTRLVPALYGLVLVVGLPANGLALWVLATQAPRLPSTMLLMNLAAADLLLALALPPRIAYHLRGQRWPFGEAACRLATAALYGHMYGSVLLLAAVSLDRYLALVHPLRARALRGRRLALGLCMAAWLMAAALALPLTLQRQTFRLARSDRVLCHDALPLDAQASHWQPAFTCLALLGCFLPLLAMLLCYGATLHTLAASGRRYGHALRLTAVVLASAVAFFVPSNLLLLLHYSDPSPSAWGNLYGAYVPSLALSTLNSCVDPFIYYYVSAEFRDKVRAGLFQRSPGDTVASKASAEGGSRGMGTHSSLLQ
Type: cell-based
In the case of `COc1cnc2c(-c3nc4cc(F)c(OC[C@@H](C)OC(=O)Nc5cnc(OCCO)nc5)cc4s3)cc(C)cc2n1` [Example 555, (R)-1-((5-fluoro-2-(2-methoxy-7-methylquinoxalin-5-yl)benzo[d]thiazol-6-yl)oxy)propan-2-yl (2-(2-hydroxyethoxy)pyrimidin-5-yl)carbamate], the IC50 is reported as 1.1 nM. In the case of `COc1cnc2c(-c3nc4cc(F)c(O[C@@H](C)[C@@H](C)OC(=O)Nc5cnc(OCCO)nc5)cc4s3)cc(C)cc2n1` [Example 556, (2R,3S)-3-((5-fluoro-2-(2-methoxy-7-methylquinoxalin-5-yl)benzo[d]thiazol-6-yl)oxy)butan-2-yl (2-(2-hydroxyethoxy)pyrimidin-5-yl)carbamate], the IC50 is reported as 0.7 nM. Work on `COc1cnc2c(-c3nc4cc(F)c(OC[C@@H](C)OC(=O)Nc5ccc(CC(C)(C)O)nc5)cc4s3)cc(C)cc2n1` [Example 557, (R)-1-((5-fluoro-2-(2-methoxy-7-methylquinoxalin-5-yl)benzo[d]thiazol-6-yl)oxy)propan-2-yl (6-(2-hydroxy-2-methylpropyl)pyridin-3-yl)carbamate] yielded an IC50 of 0.7 nM. For `COc1cnc2c(-c3nc4cc(F)c(OC[C@@H](C)OC(=O)Nc5cnc(O[C@@H](C)CO)nc5)cc4s3)cc(C)cc2n1` [Example 558, (R)-1-((5-fluoro-2-(2-methoxy-7-methylquinoxalin-5-yl)benzo[d]thiazol-6-yl)oxy)propan-2-yl (2-(((S)-1-hydroxypropan-2-yl)oxy)pyrimidin-5-yl)carbamate], the IC50 was 1.5 nM. For `COc1cnc2c(-c3nc4cc(F)c(O[C@@H](C)[C@@H](C)OC(=O)Nc5ccc(CC(C)(C)O)nc5)cc4s3)cc(C)cc2n1` [Example 559, (2R,3S)-3-((5-fluoro-2-(2-methoxy-7-methylquinoxalin-5-yl)benzo[d]thiazol-6-yl)oxy)butan-2-yl (6-(2-hydroxy-2-methylpropyl)pyridin-3-yl)carbamate], the IC50 was 0.9 nM. Work on `COc1cnc2c(-c3nc4cc(F)c(O[C@@H](C)[C@@H](C)OC(=O)Nc5cnc(O[C@@H](C)CO)nc5)cc4s3)cc(C)cc2n1` [Example 560, (2R,3S)-3-((5-fluoro-2-(2-methoxy-7-methylquinoxalin-5-yl)benzo[d]thiazol-6-yl)oxy)butan-2-yl (2-(((S)-1-hydroxypropan-2-yl)oxy)pyrimidin-5-yl)carbamate] yielded an IC50 of 1.4 nM. Compound `COc1cnc2c(-c3nc4cc(F)c(O[C@@H](C)[C@@H](C)OC(=O)Nc5ccnc(CC(C)(C)O)c5)cc4s3)cc(C)cc2n1` [Example 561, (2R,3S)-3-((5-fluoro-2-(2-methoxy-7-methylquinoxalin-5-yl)benzo[d]thiazol-6-yl)oxy)butan-2-yl (2-(2-hydroxy-2-methylpropyl)pyridin-4-yl)carbamate] has an IC50 of 53 nM. `COc1cnc2c(-c3nc4cc(F)c(O[C@@H](C)[C@@H](C)OC(=O)Nc5ccnc(OCC(C)(C)O)c5)cc4s3)cc(C)cc2n1` [Example 562, (2R,3S)-3-((5-fluoro-2-(2-methoxy-7-methylquinoxalin-5-yl)benzo[d]thiazol-6-yl)oxy)butan-2-yl (2-(2-hydroxy-2-methylpropoxy)pyridin-4-yl)carbamate] was tested, and the IC50 was 1.6 nM. `COc1cnc2c(-c3nc4cc(F)c(O[C@@H](C)[C@@H](C)OC(=O)Nc5ccnc(OCCC(C)(C)O)c5)cc4s3)cc(C)cc2n1` [Example 563, (2R,3S)-3-((5-fluoro-2-(2-methoxy-7-methylquinoxalin-5-yl)benzo[d]thiazol-6-yl)oxy)butan-2-yl (2-(3-hydroxy-3-methylbutoxy)pyridin-4-yl)carbamate] showed an IC50 of 2.8 nM. For `COc1cnc2c(-c3nc4cc(F)c(OC[C@@H](C)OC(=O)Nc5cnc(CCO)nc5)cc4s3)cc(C)cc2n1` [Example 564, (R)-1-((5-fluoro-2-(2-methoxy-7-methylquinoxalin-5-yl)benzo[d]thiazol-6-yl)oxy)propan-2-yl (2-(2-hydroxyethyl)pyrimidin-5-yl)carbamate], the IC50 was 3.7 nM. `COc1cnc2c(-c3nc4cc(F)c(O[C@@H](C)[C@@H](C)OC(=O)Nc5cnc(CCO)nc5)cc4s3)cc(C)cc2n1` [Example 565, (2R,3S)-3-((5-fluoro-2-(2-methoxy-7-methylquinoxalin-5-yl)benzo[d]thiazol-6-yl)oxy)butan-2-yl (2-(2-hydroxyethyl)pyrimidin-5-yl)carbamate] showed an IC50 of 3 nM. For `CCOc1cnc2c(-c3nc4cc(F)c(O[C@@H](C)[C@@H](C)OC(=O)Nc5cnc(CCO)nc5)cc4s3)cc(C)cc2n1` [Example 566, (2R,3S)-3-((2-(2-ethoxy-7-methylquinoxalin-5-yl)-5-fluorobenzo[d]thiazol-6-yl)oxy)butan-2-yl (2-(2-hydroxyethyl)pyrimidin-5-yl)carbamate], the IC50 was 1.8 nM. Work on `COc1cnc2c(-c3nc4cc(F)c(OC[C@@H](C)OC(=O)Nc5ccnc(OCCC(C)(C)O)c5)cc4s3)cc(C)cc2n1` [Example 567, (R)-1-((5-fluoro-2-(2-methoxy-7-methylquinoxalin-5-yl)benzo[d]thiazol-6-yl)oxy)propan-2-yl (2-(3-hydroxy-3-methylbutoxy)pyridin-4-yl)carbamate] yielded an IC50 of 5.9 nM. For `CCOc1cnc2c(-c3nc4cc(F)c(O[C@@H](C)[C@@H](C)OC(=O)Nc5cnc(OCCO)nc5)cc4s3)cc(C)cc2n1` [Example 568, (2R,3S)-3-((2-(2-ethoxy-7-methylquinoxalin-5-yl)-5-fluorobenzo[d]thiazol-6-yl)oxy)butan-2-yl (2-(2-hydroxyethoxy)pyrimidin-5-yl)carbamate], the IC50 was 2.4 nM. `COc1cnc2c(-c3nc4cc(F)c(OC[C@@H](C)OC(=O)Nc5cnc(OCCC(C)(C)O)nc5)cc4s3)cc(C)cc2n1` [Example 569, (R)-1-((5-fluoro-2-(2-methoxy-7-methylquinoxalin-5-yl)benzo[d]thiazol-6-yl)oxy)propan-2-yl (2-(3-hydroxy-3-methylbutoxy)pyrimidin-5-yl)carbamate] showed an IC50 of 8.2 nM. `COc1cnc2c(-c3nc4cc(F)c(O[C@@H](C)[C@@H](C)OC(=O)Nc5cnc(OCCC(C)(C)O)nc5)cc4s3)cc(C)cc2n1` [Example 570, (2R,3S)-3-((5-fluoro-2-(2-methoxy-7-methylquinoxalin-5-yl)benzo[d]thiazol-6-yl)oxy)butan-2-yl (2-(3-hydroxy-3-methylbutoxy)pyrimidin-5-yl)carbamate] showed an IC50 of 6.6 nM. For `COc1cnc2c(-c3nc4cc(F)c(O[C@@H](C)[C@@H](C)OC(=O)Nc5ccc(OCCO)nc5)cc4s3)cc(C)cc2n1` [Example 571, (2R,3S)-3-((5-fluoro-2-(2-methoxy-7-methylquinoxalin-5-yl)benzo[d]thiazol-6-yl)oxy)butan-2-yl (6-(2-hydroxyethoxy)pyridin-3-yl)carbamate], the IC50 was 1 nM. `COc1cnc2c(-c3nc4cc(F)c(OC[C@@H](C)OC(=O)Nc5ccc(OCCO)nc5)cc4s3)cc(C)cc2n1` [Example 572, (R)-1-((5-fluoro-2-(2-methoxy-7-methylquinoxalin-5-yl)benzo[d]thiazol-6-yl)oxy)propan-2-yl (6-(2-hydroxyethoxy)pyridin-3-yl)carbamate] showed an IC50 of 0.9 nM. `COc1cnc2c(-c3nc4cc(F)c(O[C@@H](C)[C@@H](C)OC(=O)Nc5ccc(OCC(F)(F)CO)nc5)cc4s3)cc(C)cc2n1` [Example 573, (2R,3S)-3-((5-fluoro-2-(2-methoxy-7-methylquinoxalin-5-yl)benzo[d]thiazol-6-yl)oxy)butan-2-yl (6-(2,2-difluoro-3-hydroxypropoxy)pyridin-3-yl)carbamate] gave an IC50 of 1.6 nM. `COc1cnc2c(-c3nc4cc(F)c(OC[C@@H](C)OC(=O)Nc5ccc(OCC(F)(F)CO)nc5)cc4s3)cc(C)cc2n1` [Example 574, (R)-1-((5-fluoro-2-(2-methoxy-7-methylquinoxalin-5-yl)benzo[d]thiazol-6-yl)oxy)propan-2-yl (6-(2,2-difluoro-3-hydroxypropoxy)pyridin-3-yl)carbamate] showed an IC50 of 2 nM. For `COc1cnc2c(-c3nc4cc(F)c(O[C@@H](C)[C@@H](C)OC(=O)Nc5cnc(OCC(C)(C)O)nc5)cc4s3)cc(C)cc2n1` [Example 575, (2R,3S)-3-((5-fluoro-2-(2-methoxy-7-methylquinoxalin-5-yl)benzo[d]thiazol-6-yl)oxy)butan-2-yl (2-(2-hydroxy-2-methylpropoxy)pyrimidin-5-yl)carbamate], the IC50 was 0.6 nM. `COc1cnc2c(-c3nc4cc(F)c(OC[C@@H](C)OC(=O)Nc5cnc(OCC(C)(C)O)nc5)cc4s3)cc(C)cc2n1` [Example 576, (R)-1-((5-fluoro-2-(2-methoxy-7-methylquinoxalin-5-yl)benzo[d]thiazol-6-yl)oxy)propan-2-yl (2-(2-hydroxy-2-methylpropoxy)pyrimidin-5-yl)carbamate] gave an IC50 of 1.2 nM. In the case of `COc1cnc2c(-c3nc4cc(F)c(O[C@@H](C)[C@@H](C)OC(=O)Nc5cnc(CC(C)(C)O)nc5)cc4s3)cc(C)cc2n1` [Example 577, (2R,3S)-3-((5-fluoro-2-(2-methoxy-7-methylquinoxalin-5-yl)benzo[d]thiazol-6-yl)oxy)butan-2-yl (2-(2-hydroxy-2-methylpropyl)pyrimidin-5-yl)carbamate], the IC50 is reported as 1 nM. Compound `COc1cnc2c(-c3nc4cc(F)c(O[C@@H](C)[C@@H](C)OC(=O)Nc5cnc(OC[C@@H](C)O)nc5)cc4s3)cc(C)cc2n1` [Example 578, (2R,3S)-3-((5-fluoro-2-(2-methoxy-7-methylquinoxalin-5-yl)benzo[d]thiazol-6-yl)oxy)butan-2-yl (2-((R)-2-hydroxypropoxy)pyrimidin-5-yl)carbamate] has an IC50 of 5.8 nM. For `COc1cnc2c(-c3nc4cc(F)c(O[C@@H](C)[C@@H](C)OC(=O)Nc5cnc(CCO)nc5)cc4s3)cc(Cl)cc2c1` [Example 579, (2R,3S)-3-((2-(6-chloro-3-methoxyquinolin-8-yl)-5-fluorobenzo[d]thiazol-6-yl)oxy)butan-2-yl (2-(2-hydroxyethyl)pyrimidin-5-yl)carbamate], the IC50 was 3.3 nM.
